Reference: a melting point compilation (Tetko et al.)

Row | Compound | melting point
1 | CC12CCC(C1(C)C)C(CCC(Br)c1ccccc1)(C1(CCC(Br)c3ccccc3)C(=O)C3(C)CCC1C3(C)C)C2=O (stereo unspecified) | 168 °C
2 | NC(=O)C1(C(=O)O)CC1 | 184 to 189 °C
3 | O=CC1=Cc2cc(O)ccc2OC1 | 165 °C
4 | CC1(C)C(C=Cc2cc(Br)cc([N+](=O)[O-])c2[O-])=[N+](Cc2ccccc2)c2ccccc21 | 208 °C
5 | Cc1cc2ccccc2cc1C | 105 °C
6 | CCOc1ccc2c3c1OC1C(O)C=CC4C(C2)N(C)CCC341 (stereo unspecified) | 200 °C
7 | CC1(C)OCC(C(O)C(O)C2COC(C)(C)O2)O1 (stereo unspecified) | 114 °C
8 | c1ccc(C/C(=N\Nc2ccccc2)c2cccc3ccccc23)cc1 | 101 to 102 °C
9 | O=Nc1c(-c2ccc3ccccc3c2)nc2ncccn12 | 249 °C
10 | Cc1nccnc1C | 11 to 13 °C
11 | Nc1ccc(N=Nc2ccccc2)c(N)n1 | 139 °C
12 | N#Cc1cccc(N2CCOCC2)n1 | 133 to 135 °C
13 | O=[N+]([O-])c1cc(Cl)ccc1S(=O)(=O)c1ccccc1 | 115 to 117 °C
14 | S=C=Nc1c(Br)cc(Br)cc1Br | 106 to 110 °C
15 | Clc1ncccc1-c1ccc(Br)nc1 | 161 °C
16 | CC(=O)CN1C(=O)N2CCc3ccccc3C2(c2ccc(Cl)cc2)C1=O (stereo unspecified) | 173 to 175 °C
17 | CC(=O)C=Cc1ccco1 | 39.5 °C
18 | NC(=O)NN=C(c1cc2ccccc2o1)c1cc2ccccc2o1 | 189 to 190 °C
19 | CC(=O)C1CCC2C3CC(C)C4=CC(=O)CCC4(C)C3C(O)CC12C (stereo unspecified) | 156 °C
20 | CC(=O)Nc1ccccc1CCNCCc1ccccc1NC(C)=O | 110 °C
21 | C=C1C(=O)C23C(OC(C)=O)CC4C5(C)CCCC4(C(OC(C)=O)OC5)C2C(OC(C)=O)CC1C3OC(C)=O (stereo unspecified) | 224 °C
22 | N#Cc1c([N+](=O)[O-])ccc(Cl)c1Cl | 90 to 93 °C
23 | Cc1ccccc1/C=C(/C#N)c1nc2ccccc2c(=O)[nH]1 | 258 °C
24 | Nc1nnc(-c2ccccc2)c(Nc2ccc(Cl)cc2Cl)n1 | 222 to 223 °C
25 | COc1cc(C(=O)N2CCOCC2)cc(OC)c1OC | 121 °C
26 | COc1cc(C)c(C=CC(C)=CC=CC(C)=CC(=O)O)c(C)c1C | 228 °C

Row | Compound | melting point
27 | CC(=O)OC(C)CC(C)C (stereo unspecified) | -64 °C
28 | CCOCCOC(=O)C=Cc1ccc(OC)cc1 | -25 °C
29 | NC(=O)c1cc(Cl)cc(Cl)c1N | 162 °C
30 | COc1coc(CSP(=O)(OC)OC)cc1=O | 96 °C
31 | CCP(CC)CC | -88 °C
32 | Nc1ccccc1SC(=O)c1ccccc1 | 105 °C
33 | C(=CC=Cc1ccccc1)C=Cc1ccccc1 | 199 to 203 °C
34 | COC(=O)C1Cc2ccccc2N1C(=O)OC(C)(C)C (stereo unspecified) | 73 to 75 °C
35 | ON=C(C1CC1)C1CC1 | 76.5 °C
36 | C=C[Si](Cl)(Cl)Cl | -95 °C
37 | Cc1cc(O)c(C(C)(C)C)cc1C(C)(C)C | 62.1 °C
38 | Clc1ccc(CSSCc2ccc(Cl)cc2)cc1 | 59 to 61 °C
39 | CCCCCCOc1ccccc1 | -19 °C
40 | CC1CCC2(OC1)OC1CC3C4CC=C5CC(O)CCC5(C)C4CCC3(C)C1C2C (stereo unspecified) | 206 °C
41 | CC(C)(C)OC(=O)N1CCN(c2ccccc2CO)CC1 | 67 to 71 °C
42 | Cn1ccc(C#N)n1 | 41.5 to 45 °C
43 | N#C/C(=C/c1ccc(Cl)cc1Cl)c1nc2ccccc2c(=O)[nH]1 | 298 to 300 °C
44 | Nc1ccc2c(c1N)C(=O)c1ccccc1C2=O | 290 °C
45 | CCCCCCCCCCCCCCCCCc1ccccc1 | 32 °C
46 | CCc1cccc(O)c1 | -4 °C
47 | CN(C(=S)Cl)c1ccccc1 | 31 to 34 °C
48 | CC[C@@]1(O)CC[C@H]2[C@@H]3CCC4CC(OC(C)=O)CC[C@]4(C)[C@H]3CC[C@@]21C (stereo partly specified) | 164 to 165 °C
49 | Nc1ccc(S)cc1 | 46 °C
50 | C#CCn1ccc2cc(C(=O)OC)ccc21 | 94 to 96 °C
51 | COC(=O)C(C)N(C(=O)c1ccco1)c1c(C)cccc1C (stereo unspecified) | 102 °C
52 | CC(=NNc1ccccc1)C(=O)c1cc(C(=O)C(C)=NNc2ccccc2)c([N+](=O)[O-])cc1[N+](=O)[O-] | 234 °C

Row | Compound | melting point
53 | Cc1cc2nc3[nH]c(=O)[nH]c(=O)c3nc2cc1C | 300 °C
54 | CCOC(=O)C1=C(C)NC(=O)NC1c1cccc(Cl)c1Cl (stereo unspecified) | 243 °C
55 | CCOC(=O)c1cc(C)nc(Cl)c1C#N | 58 to 60 °C
56 | Cc1ccc(Br)cc1Br | -9.7 °C
57 | COc1cc(C)cc(OC)c1C=O | 93 °C
58 | Cc1cc(=O)n(-c2ccccc2)[nH]1 | 128 °C
59 | O=C(O)CC(CC(=O)O)c1ccc(C(F)(F)F)cc1 | 166 to 168 °C
60 | Nc1nc(N)c2nc(-c3ccccc3)c(N)nc2n1 | 316 °C
61 | Cc1onc(-c2ccccc2)c1N=C=O | 39 to 40 °C
62 | CCOC(=O)CCC(C)C1CCC2C3C(=O)CC4CC(O)CCC4(C)C3CC(O)C12C (stereo unspecified) | 161 °C
63 | O=C1/C(=N/Nc2cccc(C(F)(F)F)c2)C(C(F)(F)F)=NN1c1ccccc1 | 160 °C
64 | CCC(C)c1cc([N+](=O)[O-])cc([N+](=O)[O-])c1OC(=O)OC(C)C (stereo unspecified) | 61.5 °C
65 | CCCCC(CC)COC(=O)C=CC(=O)OCC(CC)CCCC (stereo unspecified) | -10 °C
66 | CCCCCCCCCCS(=O)(=O)Cl | 34 °C
67 | Nc1cc2[nH]c(=O)c(C(=O)c3ccccc3)cc2cc1C=O | 278 to 279 °C
68 | O=CCCCCC=O | -8 °C
69 | Nc1ccccc1NC(C(=O)Nc1ccccc1)(c1ccccc1)c1ccccc1 | 160 °C
70 | O=Cc1sc(Br)c2c1OCCO2 | 175 to 176 °C
71 | N=c1sc(C(=O)c2cccs2)nn1-c1cccc(C(F)(F)F)c1 | 185 °C
72 | OC1CCc2ccccc2C1 (stereo unspecified) | 15.5 °C
73 | NNc1ccc(Cl)nn1 | 137 °C
74 | Cc1cccc2sc3nncn3c12 | 187 °C
75 | Cc1n[nH]c(C)c1Cl | 118 °C
76 | O=C(O)c1ccccc1C(=O)Nc1ccc(S(=O)(=O)N=c2[nH]ccs2)cc1 | 273 °C
77 | CC1=C(C(=O)OC(C)C)C(c2ccco2)NC(=S)N1 (stereo unspecified) | 191 °C
78 | Cc1ccc(C(c2ccc(C)o2)c2cc(I)cc(I)c2O)o1 | 143 °C

Row | Compound | melting point
79 | OCCC1CCNCC1 | 132 °C
80 | CC(C1=CCC(C(=O)O)C(C)(C)O1)(c1ccccc1)c1ccccc1 (stereo unspecified) | 145 °C
81 | COC1CC1 | -119 °C
82 | CC(C)(C)OC(=O)NCCNc1ccc(C(F)(F)F)cc1N | 129 to 132 °C
83 | CC(=O)Oc1cccc(C#N)c1 | 60 °C
84 | Cc1nc(N)nc2c1c(=O)n(-c1ccccc1)c1ccccc21 | 233 °C
85 | S=C=Nc1c(Cl)c(Cl)cc(Cl)c1Cl | 88 to 90 °C
86 | NNc1ccc(I)cc1 | 101 to 102 °C
87 | COc1ccc(C#N)cn1 | 94 to 95 °C
88 | CCCCCCCCC=CCCCCCCCC(=O)Nc1ccccc1 | 41 °C
89 | C/C(=N\O)C1CC2(C)CCC1C2(C)C (stereo unspecified) | 95.5 °C
90 | CC(=O)Nc1cc([N+](=O)[O-])c(F)cc1F | 146 to 148 °C
91 | CNc1c(C=O)c(=O)oc2ccccc12 | 215 to 216 °C
92 | Cc1cc(O)nc(O)c1 | 197 °C
93 | Cc1ccc(S(=O)(=O)OC2CCC3(C)C(CCC4C5CCCC5(C)CCC43)C2)cc1 (stereo unspecified) | 129 to 131 °C
94 | COC(=O)[C@H](Cc1ccccc1)N=C=S | 34 to 36 °C
95 | Cc1nc([N+](=O)[O-])cn1CCC#N | 115 °C
96 | COc1cc(N)c(Cl)cc1C(=O)NC1CCN(Cc2ccccc2)CC1 | 194 °C
97 | N#Cc1c(-c2ccccc2)c2c(=O)[nH]n(-c3ccccc3)c2[nH]c1=S | 142 °C
98 | Oc1ccc(Br)c(F)c1 | 71.5 to 72.5 °C
99 | Nc1c(Br)cc(C2CCCCC2)cc1Br | 37 to 38 °C
100 | CCOC(=O)c1ccc(N2C(=O)CCC2=O)cc1 | 158 to 160 °C
101 | O=C(c1ccccc1)c1cc(C(=O)c2ccccc2)cc(C(=O)c2ccccc2)c1 | 118 °C
102 | O=c1ccnc[nH]1 | 163 to 168 °C
103 | O=C(O)c1cc(O)c2ccccc2n1 | 282 °C
104 | C1=CCCCCC1 | -56 °C

Row | Compound | melting point
105 | Cc1ccc(S(=O)(=O)c2ncsc2SCC(=O)c2ccc(Cl)cc2)cc1 | 212 to 213 °C
106 | CC(N)C(O)c1cccc(O)c1 (stereo unspecified) | 108 °C
107 | COC(=O)C(C#N)=C(NC(=O)c1ccccc1)SC | 129 to 131 °C
108 | CCOC(=O)NNC(=O)OCC | 135 °C
109 | CCOC(CC(OCC)OCC)OCC | -90 °C
110 | NCCCC(=O)O | 197 to 204 °C
111 | O=C1CC2C(Br)CC1C2C(=O)O (stereo unspecified) | 178 to 182 °C
112 | COc1ccc(C(=O)C=CC(=O)O)cc1 | 139 °C
113 | COc1ccc(C(=O)c2ccccc2Cl)cc1OC | 125 to 126 °C
114 | O=C(Nc1ccc(F)cc1)c1c(O)c(F)c(F)c(F)c1F | 130 °C
115 | O=C1c2ccccc2N(C(=O)CN2CCOCC2)CN1c1ccccc1 | 136 °C
116 | O=C(N(c1ccccc1)c1ccccc1)C(F)(F)C(F)(F)C(F)(F)C(F)(F)C(F)(F)C(F)(F)C(F)(F)C(F)(F)F | 92 °C
117 | COC(=O)c1ccccc1NC(C)=O | 97 to 101 °C
118 | O=S(=O)(c1ccccc1)n1ccc2ccccc21 | 78 to 80 °C
119 | O=Cc1ccc(SC2CCCCC2)c([N+](=O)[O-])c1 | 94 to 96 °C
120 | Cn1c(/C(C#N)=N/Nc2ccc(Cl)cc2)nc2ccccc21 | 215 °C
121 | O=C(OCCO)c1ccccc1O | 37 °C
122 | CC(C)OC(=O)C1=C(C(=O)O)C2c3ccccc3C1c1ccccc12 | 176 °C
123 | COc1ccc(OC(C)=O)cc1 | 32 °C
124 | CCCCCCCCCN | -1 °C
125 | C[C@]12C=CC(=O)C=C1C(=O)C[C@@H]1[C@@H]2CC[C@@]2(C)[C@H]1CCC21OCCO1 | 207 °C
126 | ICc1ccccc1 | 24.5 °C
